Reference: BindingDB's records for doi:10.1016/s0960-894x(02)00131-2 (Shire Biochem, 2002)
pKi: −log10 of the molar value.

biological target: Prothrombin/thrombin (Homo sapiens) (UniProt P00734); experiment: Inhibition of amidolytic activity of thrombin

SMILES	pKi
Cc1nc(N)ccc1CNC(=O)[C@@H]1CC[C@H]2CN(S(=O)(=O)CC(c3ccccc3)c3ccccc3)CC(=O)N21 [(6S,8aS)-2-(2,2-Diphenyl-ethanesulfonyl)-4-oxo-octahydro-pyrrolo[1,2-a]pyrazine-6-carboxylic acid (6-amino-2-methyl-pyridin-3-ylmethyl)-amide]	7.32
N=C(NO)N1CCC(CNC(=O)[C@@H]2CC[C@H]3CN(S(=O)(=O)CC(c4ccccc4)c4ccccc4)CC(=O)N32)CC1 [(6S,8aS)-2-(2,2-Diphenyl-ethanesulfonyl)-4-oxo-octahydro-pyrrolo[1,2-a]pyrazine-6-carboxylic acid [1-(N-hydroxycarbamimidoyl)-piperidin-4-ylmethyl]-amide]	8.70
N=C(N)c1ccc(CNC(=O)[C@@H]2CC[C@H]3CN(S(=O)(=O)C(c4ccccc4)c4ccccc4)CC(=O)N32)cc1 [(6S,8aS)-2-(Diphenyl-methanesulfonyl)-4-oxo-octahydro-pyrrolo[1,2-a]pyrazine-6-carboxylic acid 4-carbamimidoyl-benzylamide]	9.00
N=C(N)N1CCC(CNC(=O)[C@@H]2CC[C@H]3CN(S(=O)(=O)C(c4ccccc4)c4ccccc4)CC(=O)N32)CC1 [(6S,8aS)-2-(Diphenyl-methanesulfonyl)-4-oxo-octahydro-pyrrolo[1,2-a]pyrazine-6-carboxylic acid (1-carbamimidoyl-piperidin-4-ylmethyl)-amide]	8.05
O=C(NCc1ccc2nc[nH]c2c1)[C@@H]1CC[C@H]2CN(S(=O)(=O)C(c3ccccc3)c3ccccc3)CC(=O)N21 [(6S,8aS)-2-(Diphenyl-methanesulfonyl)-4-oxo-octahydro-pyrrolo[1,2-a]pyrazine-6-carboxylic acid (1H-benzoimidazol-5-ylmethyl)-amide]	7.12
N=C(N)[C@H]1CC[C@H](CNC(=O)[C@@H]2CC[C@H]3CN(S(=O)(=O)C(c4ccccc4)c4ccccc4)CC(=O)N32)CC1 [(6S,8aS)-2-(Diphenyl-methanesulfonyl)-4-oxo-octahydro-pyrrolo[1,2-a]pyrazine-6-carboxylic acid (4-carbamimidoyl-cyclohexylmethyl)-amide]	8.70
Nc1ncc(CCNC(=O)[C@@H]2CC[C@H]3CN(S(=O)(=O)C(c4ccccc4)c4ccccc4)CC(=O)N32)[nH]1 [(6S,8aS)-2-(Diphenyl-methanesulfonyl)-4-oxo-octahydro-pyrrolo[1,2-a]pyrazine-6-carboxylic acid [2-(2-amino-1H-imidazol-4-yl)-ethyl]-amide]	6.87
N=C(N)N1CCC(CNC(=O)[C@@H]2CC[C@H]3CN(C(=O)CCc4ccccc4)CC(=O)N32)CC1 [(6S,8aS)-4-Oxo-2-(3-phenyl-propionyl)-octahydro-pyrrolo[1,2-a]pyrazine-6-carboxylic acid (1-carbamimidoyl-piperidin-4-ylmethyl)-amide]	6.74

More lines, in order of rising pKi, values ahead:

pKi	SMILES
7.12	N=C(N)c1ccc2c(c1)CCC2NC(=O)[C@@H]1CC[C@H]2CN(S(=O)(=O)C(c3ccccc3)c3ccccc3)CC(=O)N21 (stereo partly drawn) [(6S,8aS)-2-(Diphenyl-methanesulfonyl)-4-oxo-octahydro-pyrrolo[1,2-a]pyrazine-6-carboxylic acid (5-carbamimidoyl-indan-1-yl)-amide]
7.46	Nc1ccc(CNC(=O)[C@@H]2CC[C@H]3CN(S(=O)(=O)CC(c4ccccc4)c4ccccc4)CC(=O)N32)cn1 [(6S,8aS)-2-(2,2-Diphenyl-ethanesulfonyl)-4-oxo-octahydro-pyrrolo[1,2-a]pyrazine-6-carboxylic acid (6-amino-pyridin-3-ylmethyl)-amide]
7.60	N=C(NO)N1CCC(CNC(=O)[C@@H]2CC[C@H]3CN(C(=O)CC(c4ccccc4)c4ccccc4)CC(=O)N32)CC1 [(6S,8aS)-2-(3,3-Diphenyl-propionyl)-4-oxo-octahydro-pyrrolo[1,2-a]pyrazine-6-carboxylic acid [1-(N-hydroxycarbamimidoyl)-piperidin-4-ylmethyl]-amide]
7.85	N=C(NO)N1CCC(CNC(=O)[C@@H]2CC[C@H]3CN(S(=O)(=O)CCc4ccccc4)CC(=O)N32)CC1 [(6S,8aS)-4-Oxo-2-(2-phenyl-ethanesulfonyl)-octahydro-pyrrolo[1,2-a]pyrazine-6-carboxylic acid [1-(N-hydroxycarbamimidoyl)-piperidin-4-ylmethyl]-amide]
8.00	Cc1nc(N)ccc1CNC(=O)[C@@H]1CC[C@H]2CN(S(=O)(=O)C(c3ccccc3)c3ccccc3)CC(=O)N21 [(6S,8aS)-2-(Diphenyl-methanesulfonyl)-4-oxo-octahydro-pyrrolo[1,2-a]pyrazine-6-carboxylic acid (6-amino-2-methyl-pyridin-3-ylmethyl)-amide]
8.10	N=C(N)N1CCC(CNC(=O)[C@@H]2CC[C@H]3CN(S(=O)(=O)CC(c4ccccc4)c4ccccc4)CC(=O)N32)CC1 [(6S,8aS)-2-(2,2-Diphenyl-ethanesulfonyl)-4-oxo-octahydro-pyrrolo[1,2-a]pyrazine-6-carboxylic acid (1-carbamimidoyl-piperidin-4-ylmethyl)-amide]
8.30	N[C@H]1CC[C@H](CNC(=O)[C@@H]2CC[C@H]3CN(S(=O)(=O)CC(c4ccccc4)c4ccccc4)CC(=O)N32)CC1 [(6S,8aS)-2-(2,2-Diphenyl-ethanesulfonyl)-4-oxo-octahydro-pyrrolo[1,2-a]pyrazine-6-carboxylic acid (4-amino-cyclohexylmethyl)-amide]
8.30	N[C@H]1CC[C@H](CNC(=O)[C@@H]2CC[C@H]3CN(S(=O)(=O)C(c4ccccc4)c4ccccc4)CC(=O)N32)CC1 [(6S,8aS)-2-(Diphenyl-methanesulfonyl)-4-oxo-octahydro-pyrrolo[1,2-a]pyrazine-6-carboxylic acid (4-amino-cyclohexylmethyl)-amide]
8.70	Cc1cc(C(=N)N)ccc1CNC(=O)[C@@H]1CC[C@H]2CN(S(=O)(=O)C(c3ccccc3)c3ccccc3)CC(=O)N21 [(6S,8aS)-2-(Diphenyl-methanesulfonyl)-4-oxo-octahydro-pyrrolo[1,2-a]pyrazine-6-carboxylic acid 4-carbamimidoyl-2-methyl-benzylamide]
8.70	N=C(NO)N1CCC(CNC(=O)[C@@H]2CC[C@H]3CN(S(=O)(=O)C(c4ccccc4)c4ccccc4)CC(=O)N32)CC1 [(6S,8aS)-2-(Diphenyl-methanesulfonyl)-4-oxo-octahydro-pyrrolo[1,2-a]pyrazine-6-carboxylic acid [1-(N-hydroxycarbamimidoyl)-piperidin-4-ylmethyl]-amide]
9.00	N=C(N)c1ccc(CNC(=O)[C@@H]2CC[C@H]3CN(S(=O)(=O)CC(c4ccccc4)c4ccccc4)CC(=O)N32)cc1 [(6S,8aS)-2-(2,2-Diphenyl-ethanesulfonyl)-4-oxo-octahydro-pyrrolo[1,2-a]pyrazine-6-carboxylic acid 4-carbamimidoyl-benzylamide]
